Results reported in US9849134B2, “Method of improving cognition and social behavior in humans having deficits therein due to neurodegenerative disorders and compounds and compositions therefor” (The Board of Trustees of the Leland Stanford Junior …, priority 2014, dated 2017).
“Also recorded” adds a separate entry of the source. Structures can show the parent of a compound that is named as a salt. Where two headings read alike, the source gives them in different places. * marks the point of attachment. Myristoyl = CCCCCCCCCCCCCC(=O)*

Key:
[1] = system: Thy1-hAPP^Lond/Swe+ line transgenic mice; test: Fear conditioning test in Thy1-hAPP^Lond/Swe+ mice; type: in vivo; details: 0.3 and 1 mg/kg s.c., chronic, after 2.5 months
[2] = system: humans with heart failure; details: 200 mg twice daily for 2-12 months; cited from earlier work
[3] = system: Thy1-hAPP^Lond/Swe+ line transgenic mice; test: Activity chamber test (locomotor activity) in Thy1-hAPP^Lond/Swe+ mice; type: in vivo; details: 0.3 and 1 mg/kg s.c., chronic, after 1 month
Thy1-APP^Lond/Swe+ mice = test: Working memory in Thy1-APP^Lond/Swe+ mice; type: in vivo; details: acute s.c. 3 mg/kg
β-arrestin pathway = β-arrestin pathway activation; type: cell-based
pCREB [4] = test: Western blot of pCREB in C57B1/6 mice; type: in vivo
Description: (§1) Molecular analyses. Immunohistochemistry was used to assess c-Fos, tyrosine hydroxylase (TH) and β1-ADR. The quantitative analysis of stained cells was done in different brain regions according to the Mouse Brain Atlas. Cell counting was achieved using the unbiased-stereologic method. The total number of positive cells was quantified with the optical fractionator method using the StereoInvestigator software (MBF Bioscience, Williston, Vt., USA). The counting criteria were determined so as to obtain a mean coefficient of error ≦0.10. Analysis of pCREB was performed by western blot.
We then tested whether pharmacological modulation of β1-ADR affects CREB phosphorylation in the MeA in the context of social learning.

[5] = Xamoterol concentration in plasma and brain after s.c. injection; type: in vivo; details: mice; for concentration at 30 min / concentration at 1 h / concentration at 2 h: C57Bl/6, mouse, sc, 3 mg/kg s.c.
Description: Mice are euthanized at 3, 15, 30, 60, 120, 240 and 360 minutes after drug administration. Blood is drawn by cardiac puncture and collected in heparinized tubes. Plasma is immediately separated by centrifugation and stored at −80° C. until assay. For tissue distribution studies, tissue samples from the brain, heart, kidney, liver and spleen are collected 60 and 120 minutes after drug administration. The tissue samples are homogenized using 0.9% saline at a ratio of 1:2. The homogenates are stored at −80° C. until analysis. […] 2(2): p.

[6] = system: Thy1-hAPP^Lond/Swe+ mice (APP); test: Social recognition test in APP mouse model of AD; type: in vivo
Description: (§2) Behavioral testing. […] Drug treatment. […] Betaxolol was injected sub-cutaneously (1 mg/kg) or in the MeA (30 nmole/side). PKI 14-22 amide was dissolved in 30% acetonitrile and injected in the MeA (2.75 nmole/side).

pCREB [7] = test: Western blot of pCREB in medial amygdala of APP mice and WT controls; type: in vivo
Description: as §1, with “Immunohistochemistry was used to assess c-Fos, tyrosine hydroxylase (TH) and β1-ADR.” left out, “blot. […] It was reported that in Alzheimer's disease several phosphorylated proteins and transcription factors are preferentially located in the cytoplasm (vs. the nucleus) and are thus inefficient in inducing expression of genes important for learning and memory.” for “blot.”

wild type mice = test: Cardiac safety after chronic treatment in wild type mice; type: in vivo; details: 3 months
mice and rats = details: cited from earlier work
5xFAD mice = test: Chronic dosing in 5xFAD mouse model of AD (memory, Morris-Water Maze, microglia, plaques); type: in vivo
C57B1/6 mice [8] = system: C57B1/6 mice
Description: (§3) Behavioral testing. Social recognition was tested in two different tests: the 3-chamber social test developed by Nadler et al and the in-home cage social discrimination task developed by Macbeth et al. To differentiate between social recognition and recognition of non-social odors/objects non-social odor discrimination tests (olfactory habituation/dishabituation and olfactory recognition test) and an object recognition test were used.
We assessed the ability of C57B1/6 mice to recognize a previously-met conspecific after an acute subcutaneous injection of various doses of a selective β1-ADR antagonist, betaxolol (0.01, 0.1 and 1 mg/kg).

β2-ADR KO mice = details: 3 mg/kg
Description: as §3

C57BI/6 mice = details: single dose 1 mg/kg
c-Fos = system: c-Fos
Description: as §1
Brain regions involved in social recognition have already been defined. Among them are the lateral septum, prefrontal cortex and MeA. […] We used c-Fos as a marker of neuronal activity and compared its expression in a group of C57B1/6 mice after social learning with a group of mice after both social learning and social recognition.

C57B1/6 mice [9] = test: Social recognition tests (in-home cage social discrimination, 3-chamber) in C57B1/6 mice; type: in vivo
Description: as §2

[10] = 1 mg/kg, 20 minutes prior to learning phase

## O=C(NCCNCC(O)COc1ccc(O)cc1)N1CCOCC1 (racemic) [xamoterol, 1-p-Hydroxyphenoxy-3-beta-(morpholinocarbonamido)ethyl-amino-2-propanol hydrogen fumarate]
[1]
  Cognitive functioning (fear conditioning test): dose-dependent improvement in cognitive functioning
[2]
  Side effects of chronic treatment in humans: without any significant side effects
[3]
  Hyperactivity phenotype (locomotor activity): dose-dependent reversal of hyperactivity phenotype
Thy1-APP^Lond/Swe+ mice
  Working memory deficit: rescued; also recorded: rescues working memory and social recognition deficits
β-arrestin pathway
  Effect on β-arrestin pathway: no effect on the β-arrestin pathway
pCREB [4]; 3 mg/kg s.c., after 15 minutes
  pCREB expression in mice brain: significant increase of pCREB
pCREB [4]; 3 mg/kg, 5 min after injection
  pCREB expression in MeA vs baseline: increased
[5]; brain, read-out: Brain
  concentration at 30 min: 168 ± 6.4 ng/mL
  concentration at 1 h: 116 ± 9.1 ng/mL
  concentration at 2 h: 125 ± 7.4 ng/mL
[5]; plasma, read-out: Plasma
  concentration at 30 min: 274 ± 75.9 ng/mL
  concentration at 1 h: 45.1 ± 6.1 ng/mL
  concentration at 2 h: 4.7 ± 0.7 ng/mL
[5]
  Passage of the BBB: passes the BBB and reach the central nervous system
[6]; 3 mg/kg systemic (s.c.), acute, prior to testing
  Social recognition deficit of APP mice: rescued the social recognition deficit
[6]; 3 mg/kg, WT and APP mice
  Preference for unfamiliar intruder over empty cup: did not affect the preference
pCREB [7]; APP mice
  Total pCREB in MeA of APP mice after social learning: no significant increase
pCREB [7]; WT animals
  pCREB in MeA of WT littermates after social learning: induced an increase in pCREB
pCREB [7]; injection prior to social learning, nuclear fraction
  Nuclear pCREB level in medial amygdala of APP mice: significantly higher
Wild type mice; 3 mg/kg s.c., vs vehicle
  Cardiovascular functions (BP, heart rate, EF, FS, HW/BW): did not develop pathological changes in cardiac functions; also recorded: did not show significant difference in cardiovascular functions
  Myocardial fibrosis: did not induce cardiac fibrosis; also recorded: did not show significant difference
Wild type mice; 3 mg/kg, s.c.
  Myocardial structure (Masson's trichrome staining): did not produce changes in myocardial structure
Mice and rats; mice with NA deficiency
  Retrieval deficit in mice with NA deficiency: can be rescued
5xFAD mice
  Activated microglia and Aβ plaque clearance: increased activated microglia and Aβ plaque clearance
  Performance in the Morris-Water Maze (escape latency, time in thigmotaxis): improved
5xFAD mice; daily oral 6 mg/kg over 3 months, 6 mg/kg
  Declarative memory deficit: rescued; also recorded: rescues the declarative and spatial memory deficits

## CC(C)NCC(O)COc1ccc(CCOCC2CC2)cc1 (stereo not drawn) [betaxolol]
C57B1/6 mice [8]; 1 mg/kg
  Ability to recognize a familiar odor or object over a new one: not affected
  Non-social odor habituation, dishabituation and recognition: did not impair non-social odor recognition
C57B1/6 mice [8]; betaxolol vs vehicle
  Non-social odor recognition (heptanol / heptanol:octanol): did not impair non-social order recognition
β2-ADR KO mice
  Social recognition in β2-ADR KO mice: effectively impaired social recognition abilities
C57BI/6 mice
  Contextual memory: impairment of contextual memory
c-Fos; 1 mg/kg prior to social recognition task
  Number of c-Fos positive cells in the MeA: decreased the number of c-Fos positive cells in the MeA
c-Fos; injection prior to social recognition task
  Number of c-Fos positive cells in the thalamus (PV): did not affect the number of c-Fos positive cells in the thalamus
c-Fos; vs vehicle-injected mice
  Percent of β1-ADR cells expressing c-Fos in MeA: significantly reduced
pCREB [4]; 1 mg/kg, 60 minutes before social learning
  pCREB expression in MeA after 5 minutes of social interaction: significantly decreased
Mice and rats; wild-type mice and rats
  Spatial navigation retrieval: produces spatial navigation retrieval deficit
C57B1/6 mice [9]; 30 nmole in the MeA
  Social recognition after injection in the MeA: impairs social recognition
C57B1/6 mice [9]; 0.01 mg/kg s.c.
  Social recognition: preference for novel intruder over familiar one: showed this preference
C57B1/6 mice [9]; 0.1 mg/kg s.c.
  Social recognition: preference for novel intruder over familiar one: did not show a preference
C57B1/6 mice [9]; 1 mg/kg s.c.
  Social recognition: preference for novel intruder over familiar one: did not show a preference
C57B1/6 mice [9]; [10]
  Long-term social memory, 24 hours after learning phase: impaired long-term social memory
  Short term social recognition, dosing before learning phase: impaired short term social recognition
C57B1/6 mice [9]; 1 mg/kg, 30 minutes prior to retrieval phase
  Social recognition, dosing before retrieval phase: did not impair social recognition
C57B1/6 mice [9]; 1 mg/kg, systemic injection prior to learning phase
  Social recognition in 3-chamber test: impairs social recognition
C57B1/6 mice [9]; 0.01 to 1 mg/kg
  Social learning: preference for unfamiliar mouse over empty cup: did not affect social learning

## CC(C)NCC(O)c1ccc(O)c(O)c1 (stereo not drawn) [isoprenaline]
β-arrestin pathway
  Effect on β-arrestin pathway: activates both cAMP and β-arrestin pathways

## PKI 14-22 amide myristoylated (Myristoyl-SGRTGRRNA-NH2; SMILES CCCCCCCCCCCCCC(=O)N[C@@H](CO)C(=O)NCC(=O)N[C@@H](CCCNC(=N)N)C(=O)N[C@H](C(=O)NCC(=O)N[C@@H](CCCNC(=N)N)C(=O)N[C@@H](CCCNC(=N)N)C(=O)N[C@@H](CC(N)=O)C(=O)N[C@@H](C)C(N)=O)[C@@H](C)O; UniProt P61925 14-22, looked up, fragment) [PKA inhibitor]
C57B1/6 mice [9]; 2.75 nmole in the MeA
  Preference for unfamiliar conspecific over empty cup after injection in the MeA: did not affect
  Social recognition after injection in the MeA: impaired the ability of mice to recognize between a new and familiar conspecific
